Data from patent US12241084B2, “Methods for efficient generation of GABAergic interneurons from pluripotent stem cells” (The McLean Hospital Corporation, priority 2013, dated 2025).
“Also recorded” adds a separate entry of the source.

Tests used:
[1] = test system: H9 cells; assay: MGE derivation from differentiating hPSCs (Nkx2.1 immunocytochemistry, cell counting, FACS); assay type: cell-based, human; settings: for MGE specification: treatment starting at day 0, flow cytometry; for Nkx2.2+/total cells: n=4
Description: Human PSC cells (H9 ESCs (WA09, WiCell, Madison, WI, passage 45-55), H7 ESC (WA07, WiCell, passage 41-51) and iPSC2497 (a kind gift from Dr. Fred Gage, [14], passage 30-40) were maintained on Matrigel (BD, San Hose, CA) in mTeSR media (Invitrogen, Calsbad, CA) with 10 ng/ml bFGF (Peprotech, Rocky Hill, NJ), and passaged using Dispase (Stem Cell Technologies, Vancouver, BC, Canada). For differentiation, PSCs were trypsinized and grown as floating aggregates in low adherent flasks in KSR media (20% knockout serum replacement, DMEM, 2 mM L-glutamine and 10 μM β-mercaptoethanol (all from Invitrogen)). Rock inhibitor (Y-27632, 10 μM, Tocris, Bristol, United Kingdom) was added on the first day of differentiation. After two weeks of floating culture, cells were transferred to polyornithine (PLO; […]; Sigma, St. Louis, MO) and fibronectin (FN; […]; Sigma, St. Louis, MO) coated surfaces. For neural induction, cells were treated with LDN193189 (100 nM, Stemgent, Cambridge, MA) from d0 to d14 and with SB431542 (10 μM, Tocris) from d0 to d7 [25]. For MGE induction, cells were treated with IWP2 (5 μM, EMD Millipore) from d0 to d7, with SAG (0.1 µM, EMD Millipore) from d0 to d21, and with FGF8 (100 ng/ml, Peprotech) from d8 to d21. After 3 weeks of differentiation, cells were trypsinized and droplets of 10,000 cells/μl transferred to PLO/FN-coated coverslips in differentiation media (N3 media with 10 ng/ml GDNF (Peprotech), 10 ng/ml BDNF (Peprotech) and 2.5 μM DAPT (Tocris)) for further differentiation and maturation.
Differentiated cells were trypsinized and fixed in Fix/Perm solution (BD) for 30 min., and incubated with blocking buffer (PBS with 0.1 mg/ml BSA and 0.1% Saponin (both from Sigma, St. Louis, MO)) for 10 minutes. Blocked cells were incubated with primary antibody (anti-Nkx2.1; Epitomics) in blocking buffer for 30 minutes. After washing with PBS, Alexa 647-conjugated secondary antibodies (Invitrogen) were added (1:1000) and incubated for another 15 minutes. Some samples were incubated only with secondary antibody as control. After washing with PBS, cells were suspended in blocking buffer and analyzed using a FACSAria (BD Biosciences, San Jose, CA). Flowjo (Tree Star, Ashland, Or) software was used to analyze raw data. Ten thousand cells were used per analysis.
For immunofluorescence staining, fixed cells or tissue sections were incubated with blocking buffer (PBS, 10% normal donkey serum (NDS)) containing 0.1% Triton for 10 minutes. Cells were then incubated overnight at 4° C. with primary antibodies diluted in PBS containing 2% NDS. The primary antibody list can be found in table 1. After rinsing with PBS, samples were incubated with fluorescent dye-labeled secondary antibodies (Alexa 488- Alexa 594- or Alexa 647-labeled IgG; Invitrogen, Carlsbad, CA) in PBS containing 2% NDS for 30 minutes at room temperature. After rinsing with PBS, Hoechst 33342 ([…]) was used for counterstaining, and coverslips/tissues sections were mounted onto slides in Mowiol 4-88 (Calbiochem, Gibbstown, NJ). Confocal analysis was performed using an Olympus DSU Spinning Disc Confocal on an IX81 inverted microscope (Center Valley, PA).
Cells were counted using the StereoInvestigator image capture equipment and software (Microbright Field, Williston, VT). For counting of cells on cover slips, an optical fractionator probe was used with a 500 μm×500 µm grid size and 100 μm×[…] counting frame (>40 counting sites with >1000 total cells counted per sample) at 40× magnification. Coverslips from 3-4 independent differentiations were used for analysis. For statistical analysis, we performed t-test (alpha=0.05) comparing control vs. sample using Prism6 software (Graph Pad).

[2] = test system: AMPA/kainate-type glutamate receptors; assay: NBQX inhibition of sEPSC in grafted cells; set-up: species or system human; settings: 10 μM NBQX
[3] = test system: H9 cells; assay: MGE derivation from differentiating hPSCs (Nkx2.1 immunocytochemistry, cell counting, FACS); assay type: cell-based, human
[4] = test system: differentiating ES cells; assay: Real time PCR analysis of differentiating ES cells; assay type: cell-based, human
Description: Total RNA was prepared using Trizol (Invitrogen) and Purelink RNA mini kit (Invitrogen). cDNA from total RNA was generated using the SuperScript™ II RT (Invitrogen, Carlsbad, CA) and oligo (dT) primers. For quantitative analysis of the expression level of mRNAs, real-time PCR analyses were performed using the DNA engine Opticon™ (MJ Research, Waltham, MA) and SYBR green I (Molecular Probes, OR). Primers were designed using the MacVector software (Oxford Molecular Ltd.: primers sequences are available upon request). PCR were performed in 25 μl containing […] of each primer, 0.5×SYBR Green I (Molecular Probes), and 1 μl of cDNA. Fifty cycles consisting of 95° C. for 30 sec., 55° C. for 30 sec., 72° C. for 30 sec., and 79° C. for 5 sec. were performed. Primer dimers were melted at 79° C. before measuring the fluorescent signals after each cycle. The mRNA expression level for each gene was normalized against that of the GAPDH gene. The relative values were calculated by setting the normalized value of control as 1.

[5] = test system: voltage-gated Na+ channels; assay type: cell-based, human
[6] = SHH activation during early differentiation

Q: `Cc1ccc2nc(NC(=O)CSc3nc4c(c(=O)n3-c3ccccc3)SCC4)sc2c1` [IWP2] was tested. Which MGE specification [1] did it give?
A: 5.16%

Q: Which “inhibition of spontaneous excitatory postsynaptic currents” value [2] does the source give for `NS(=O)(=O)c1cccc2c1c([N+](=O)[O-])cc1nc(O)c(O)nc12` [NBQX] here?
A: inhibited sEPSC completely

Q: What does the source list for `CNC1CCC(N(Cc2cccc(-c3ccncc3)c2)C(=O)c2sc3ccccc3c2Cl)CC1` (stereo not drawn) [SAG]?
A: expression of isl1 ([1]; 10 nM vs 100 nM SAG): no significant difference; induction of the MGE phenotype ([1]; 100 nM SAG, H9 cells, 25 days of differentiation): significantly higher induction of the MGE phenotype; MGE specification [1]: 0.79%; MGE specification ([3]; 10 nM SAG, H9 cells, 25 days of differentiation): modest increase in MGE specification; Nkx2.1 level / MGE derivation ([3]; SAG treatment in the 3rd week of differentiation): increased Nkx2.1 level mildly but significantly; also recorded: further enhanced MGE derivation; Gli1 expression [4, 6]: strong induction of Gli1; Gli3 expression [4, 6]: strong Gli3 expression reduction; FGF15/19 expression ([4]; early SHH activation): induced the expression of FGF15/19

Q: For `NC1=N[C@H](O)[C@H]2[C@H]3O[C@]4(O)O[C@@H]([C@@H](O)[C@@]2(N1)[C@@H]4O)[C@]3(O)CO` [tetrodotoxin], which “block of transient (rapidly desensitizing) inward currents” value [5] is on record?
A: completely blocked; also recorded: selectively blocked transient component

Q: How did the “Nkx2.2+/total cells” value [1] turn out when “FGF19: exogenously applied FGF19, caudalizing signal” was run?
A: 4.19+0.77%

Q: What about the CGE identity ([3]; FGF19 applied exogenously instead of FGF8, 3 weeks of differentiation) of the same molecule?
A: most of the cells taking up CGE identity; also recorded: induces CGE phenotype

Q: What about the FGF8 expression ([4]; exogenous application of FGF19) of the same molecule?
A: no effect on FGF8 expression; also recorded: does not affect FGF8 expression

B1: FGF8: fibroblast growth factor 8 protein (SEQ ID NO: 1), activator of FGF8 signaling (protein, listed as Homo sapiens)
chain: MAEDGDPFAKLIVETDTFGSRVRVRGAETGLYICMNKKGKLIAKSNGKGKDCVFTEIVLENNYTALQNAKYEGWYMAFTRKGRPRKGSKTRQHQREVHFMKRLPRGHHTTEQSLRFEFLNYPPFTRSLRGSQRTWAPEPR
Q: B1 was tested. Which “MGE cells by FACS” value ([1]; early SHH activation with exogenous FGF8, multiple hPSCs) did it give?
A: > 80%

Q: What about the “Nkx2.2+/total cells” value [1] of the same molecule?
A: 0.61+0.38%

Q: And the “MGE differentiation vs CGE differentiation” value ([1]; treatment in the 2nd and/or 3rd week of differentiation)?
A: significantly increased MGE differentiation at the expense of CGE differentiation; also recorded: further induced MGE phenotype at the expense of the CGE phenotype; also recorded: induces MGE phenotype

Q: What about the FGF19 expression ([4]; exogenous application of FGF8) of the same molecule?
A: increase FGF19 expression mildly but significantly; also recorded: increases FGF19 expression
